Assay results reported in ChEMBL document CHEMBL5338718, “Design and exploration of gut-restricted bifunctional molecule with TGR5 agonistic and DPP4 inhibitory effects for treating ulcerative colitis” (Eur J Med Chem, 2022).
pEC50, pIC50: −log10 of the molar value. Activity calls are given as the source filed them. The rule behind the calls is not given here.

What was measured:
[1] = biological target: Dipeptidyl peptidase 4 (Mus musculus, UniProt P28843); test: Inhibition of mouse serum DPP4 assessed as cleavage of substrate by measuring AMC release using Gly-Pro-AMC as substrate by fluorescence based microplate reader assay; format: cell-free
[2] = system: Mus musculus; test: Anti-colitis activity against DSS-induced ulcerative colitis BALB/c mouse model assessed as reduction in fecal occult blood by measuring DAI score at 30 mg/kg,po and measured after 5 to 10 days; format: functional, organism-based; conditions: time 5-10 day
[3] = system: Mus musculus; test: Anti-colitis activity against DSS-induced ulcerative colitis BALB/c mouse model assessed as suppression of DSS induced fecal occult blood at 30 mg/kg,po for 10 days; format: functional, organism-based; conditions: time 10.0 day
[4] = Cmax in overnight-fasted ICR mouse Gall bladder at 30 mg/kg, po and measured upto 8 hrs by LC-MS/MS analysis; format: ADME, organism-based; design: dose 30 mg/kg, time < 8 hrs, route po
[5] = Cmax in overnight-fasted ICR mouse plasma at 30 mg/kg, po and measured upto 8 hrs by LC-MS/MS analysis; format: ADME, organism-based; design: dose 30 mg/kg, time < 8 hrs, route po
[6] = system: Mus musculus; test: In vivo agonist activity at TGR5 in overnight fasted ICR mouse assessed as increase in GLP-1 activity in serum at 100 mg/kg,po preincubated with sitagliptin at 30 mg/kg,po for one hr followed by compound addition and measured after 8 hrs by ELISA; format: functional, organism-based
[7] = system: Mus musculus; test: Anti-colitis activity against DSS-induced ulcerative colitis BALB/c mouse model assessed as suppression of DSS induced weight loss at 30 mg/kg,po for 10 days; format: functional, organism-based; conditions: time 10.0 day
[8] = Cmax in overnight-fasted ICR mouse ileum at 30 mg/kg, po and measured upto 8 hrs by LC-MS/MS analysis; format: ADME, organism-based; design: dose 30 mg/kg, time < 8 hrs, route po
[9] = system: Mus musculus; test: In vivo inhibition of DDP4 in ICR mouse assessed as decrease in enzyme activity in ileum at 50 mg/kg,po and measured after 8 hrs using Gly-Pro-AMC as substrate by fluorescence based microplate reader assay; format: functional, organism-based
[10] = system: Mus musculus; test: In vivo inhibition of DDP4 in ICR mouse assessed as decrease in enzyme activity in ileum at 200 mg/kg,po and measured after 8 hrs using Gly-Pro-AMC as substrate by fluorescence based microplate reader assay; format: functional, organism-based
[11] = biological target: T1, G-protein coupled bile acid receptor 1 (Mus musculus, UniProt Q80SS6); test: Agonist activity at mouse TGR5 expressed in human HEK293 cells co-expressing CRE-driven luciferase reporter gene assessed as luciferase activity incubated for 5.5 hrs by Steady-Glo based luciferase assay; format: functional, cell-based
T1 sequence (Q80SS6 whole entry): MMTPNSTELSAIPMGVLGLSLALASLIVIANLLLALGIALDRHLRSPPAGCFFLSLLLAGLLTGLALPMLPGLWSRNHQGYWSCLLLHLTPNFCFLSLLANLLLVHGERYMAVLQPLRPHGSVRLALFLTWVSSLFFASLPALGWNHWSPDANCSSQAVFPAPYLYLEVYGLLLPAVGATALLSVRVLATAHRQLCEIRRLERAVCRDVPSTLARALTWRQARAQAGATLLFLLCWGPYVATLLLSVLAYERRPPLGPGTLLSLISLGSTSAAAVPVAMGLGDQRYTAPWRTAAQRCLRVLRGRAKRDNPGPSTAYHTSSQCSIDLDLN

[12] = Apparent permeability across apical to basolateral side in human Caco-2 cells at 20 uM and measured upto 95 mins by LC-MS/MS analysis; format: ADME, cell-based
[13] = system: Mus musculus; test: Anti-colitis activity against DSS-induced ulcerative colitis BALB/c mouse model assessed as reduction in stool softness by measuring DAI score at 30 mg/kg,po and measured after 5 to 10 days; format: functional, organism-based; conditions: time 5-10 day
[14] = Water solubility at pH 6.8; format: physicochemical
[15] = Apparent permeability across basolateral to apical side in human Caco-2 cells at 20 uM and measured upto 95 mins by LC-MS/MS analysis; format: ADME, cell-based
[16] = Water solubility at pH 7.4; format: physicochemical
[17] = system: Mus musculus; test: Anti-colitis activity against DSS-induced ulcerative colitis BALB/c mouse model assessed as recovery of tissue damage at 30 mg/kg,po for 10 days by Hematoxylin and eosin staining based microscopy; format: functional, organism-based; conditions: time 10.0 day
[18] = system: Mus musculus; test: Anti-colitis activity against DSS-induced ulcerative colitis BALB/c mouse model assessed as decrease in histological score at 30 mg/kg,po for 10 days by Hematoxylin and eosin staining based microscopy; format: functional, organism-based; conditions: time 10.0 day
[19] = system: Mus musculus; test: Anti-colitis activity against DSS-induced ulcerative colitis BALB/c mouse model assessed as recovery of colon length at 30 mg/kg,po for 10 days; format: functional, organism-based; conditions: time 10.0 day
[20] = system: Mus musculus; test: Anti-colitis activity against DSS-induced ulcerative colitis BALB/c mouse model assessed as decrease in inflammatory cell infiltration at 30 mg/kg,po for 10 days by Hematoxylin and eosin staining based microscopy; format: functional, organism-based; conditions: time 10.0 day
[21] = system: Mus musculus; test: In vivo inhibition of DDP4 in ICR mouse assessed as decrease in enzyme activity in serum at 200 mg/kg,po and measured after 8 hrs using Gly-Pro-AMC as substrate by fluorescence based microplate reader assay; format: functional, organism-based
[22] = biological target: T2, G-protein coupled bile acid receptor 1 (Homo sapiens, UniProt Q8TDU6); test: Agonist activity at human TGR5 expressed in human HEK293 cells co-expressing CRE-driven luciferase reporter gene assessed as luciferase activity incubated for 5.5 hrs by Steady-Glo based luciferase assay; format: functional, cell-based
T2 sequence (Q8TDU6 whole entry): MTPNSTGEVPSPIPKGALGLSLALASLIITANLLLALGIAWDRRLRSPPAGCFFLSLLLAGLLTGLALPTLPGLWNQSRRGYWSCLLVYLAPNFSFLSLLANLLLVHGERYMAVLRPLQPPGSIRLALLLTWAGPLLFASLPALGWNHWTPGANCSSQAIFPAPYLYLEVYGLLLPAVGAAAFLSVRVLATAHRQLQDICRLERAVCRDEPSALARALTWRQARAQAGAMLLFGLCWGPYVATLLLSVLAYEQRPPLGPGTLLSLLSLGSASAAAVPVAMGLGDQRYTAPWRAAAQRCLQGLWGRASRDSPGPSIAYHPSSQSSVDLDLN

[23] = system: Mus musculus; test: Induction of gut restriction in overnight fasted ICR mouse assessed as effect on gallbladder-filling by measuring gallbladder volume at 30 to 200 mg/kg, po and measured after 4 hrs by Vernier caliper analysis; format: functional, organism-based; conditions: dose 30-200 mg/kg
[24] = system: Mus musculus; test: Anti-colitis activity against DSS-induced ulcerative colitis BALB/c mouse model assessed as suppression of DSS induced diarrhea at 30 mg/kg,po for 10 days; format: functional, organism-based; conditions: time 10.0 day
[25] = system: Mus musculus; test: In vivo inhibition of DDP4 in ICR mouse assessed as decrease in enzyme activity in serum at 200 mg/kg,po and measured at 2 hrs using Gly-Pro-AMC as substrate by fluorescence based microplate reader assay; format: functional, organism-based
[26] = system: Mus musculus; test: In vivo inhibition of DDP4 in ICR mouse assessed as decrease in enzyme activity in ileum at 25 mg/kg,po and measured after 8 hrs using Gly-Pro-AMC as substrate by fluorescence based microplate reader assay; format: functional, organism-based
[27] = system: Mus musculus; test: Anti-colitis activity against DSS-induced ulcerative colitis BALB/c mouse model assessed as reduction in body weight loss by measuring DAI score at 30 mg/kg,po and measured after 5 to 10 days; format: functional, organism-based; conditions: time 5-10 day
[28] = system: Mus musculus; test: Induction of gut restriction in overnight fasted ICR mouse assessed as effect on gallbladder-filling by measuring bile weight at 30 to 200 mg/kg, po and measured after 4 hrs by Vernier caliper analysis; format: functional, organism-based; conditions: dose 30-200 mg/kg
[29] = system: Mus musculus; test: In vivo inhibition of DDP4 in ICR mouse assessed as decrease in enzyme activity in serum at 200 mg/kg,po and measured at 4 hrs using Gly-Pro-AMC as substrate by fluorescence based microplate reader assay; format: functional, organism-based

Sequence of Dipeptidyl peptidase 4 (P28843 whole entry): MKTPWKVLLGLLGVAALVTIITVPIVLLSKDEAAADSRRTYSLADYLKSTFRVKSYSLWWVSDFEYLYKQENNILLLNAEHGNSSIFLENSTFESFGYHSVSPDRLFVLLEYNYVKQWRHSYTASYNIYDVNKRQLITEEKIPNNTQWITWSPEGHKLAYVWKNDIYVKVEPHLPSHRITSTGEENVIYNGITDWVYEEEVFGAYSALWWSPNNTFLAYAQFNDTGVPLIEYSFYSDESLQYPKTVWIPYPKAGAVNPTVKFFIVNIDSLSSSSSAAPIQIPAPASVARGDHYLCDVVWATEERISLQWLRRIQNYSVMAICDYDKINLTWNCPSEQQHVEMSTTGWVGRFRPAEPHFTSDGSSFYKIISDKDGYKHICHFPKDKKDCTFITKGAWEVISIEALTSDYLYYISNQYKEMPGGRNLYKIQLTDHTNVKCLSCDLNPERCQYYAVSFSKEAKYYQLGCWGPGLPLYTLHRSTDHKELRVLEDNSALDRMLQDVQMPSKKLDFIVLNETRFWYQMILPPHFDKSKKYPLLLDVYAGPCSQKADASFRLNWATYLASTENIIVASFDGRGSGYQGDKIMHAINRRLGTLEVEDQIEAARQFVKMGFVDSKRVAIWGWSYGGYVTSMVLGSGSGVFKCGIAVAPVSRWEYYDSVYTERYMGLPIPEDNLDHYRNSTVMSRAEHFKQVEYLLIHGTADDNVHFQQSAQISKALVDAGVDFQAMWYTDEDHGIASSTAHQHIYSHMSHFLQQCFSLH

pIC50 [1]: 7.67 | Cmax [4]: 820 ng/mL | Cmax [5]: 8.3 ng/mL | Cmax [8]: 11700 ng/mL | pEC50 [11]: 8.47 | Papp A→B at 1.583 h, 20 µM [12]: 0.01 ×10⁻⁶ cm/s | solubility [14]: > 100 µM | Papp B→A at 1.583 h, 20 µM [15]: 0.01 ×10⁻⁶ cm/s | solubility [16]: > 100 µM | pEC50 [22]: 7.31
Structure (SMILES): CC1C(=O)N(CC(=O)N(CCOCCOCCOCCOCCOCCOCCOCCOCCN(CC(=O)O)C(=O)CCc2cc(Cl)c(Oc3ccsc3C(=O)N3CCN(C4CC4)c4ccccc43)cc2Cl)CC(=O)O)CCCN1C(=O)C[C@H](N)Cc1cc(F)c(F)cc1F (mixture of isomers)
Activity [2]: Active | Activity [3]: Active | Activity [6]: Active | Activity [7]: Active | inhibition [9]: Active | inhibition [10]: Active | Activity [13]: Active | Activity [17]: Active | Activity [18]: Active | Activity [19]: Active | Activity [20]: Active | inhibition [21]: Active | Activity [23]: Active | Activity [24]: Active | inhibition [25]: inactive | inhibition [26]: Active | Activity [27]: Active | Activity [28]: Active | inhibition [29]: inactive
